Data from patent US10450314B2, “Pteridine derivatives as modulators of ROR gamma” (Boehringer Ingelheim International GmbH, priority 2015, dated 2019).

Key:
[1] = target: T1, RORγ (Homo sapiens, UniProt P51449); experiment: RORγ Reporter Gene Assay (RGA), luciferase transactivation in transiently transfected HEK 293 cells; format: cell-based; settings: HEK 293 cells cotransfected with pGL4.3 luc2P/GAL4UAS and pBIND Gal4DBD hRORC LBD; 20-24 h incubation
T1 construct: expressed in transfected cells; host or cells: HEK 293 cells, transiently cotransfected with pGL4.3 luc2P/GAL4UAS/Hygro reporter
T1 sequence (P51449 269-508 limits assumed): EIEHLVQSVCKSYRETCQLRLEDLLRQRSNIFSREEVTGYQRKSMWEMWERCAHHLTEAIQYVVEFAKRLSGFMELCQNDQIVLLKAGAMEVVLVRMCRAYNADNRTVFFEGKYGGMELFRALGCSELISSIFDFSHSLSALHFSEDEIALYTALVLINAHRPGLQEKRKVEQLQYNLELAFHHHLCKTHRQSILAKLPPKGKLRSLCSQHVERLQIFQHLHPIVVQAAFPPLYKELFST

[2] = Human liver microsome (HLM) metabolic stability assay; format: in vitro ADME; settings: human liver microsomes, 1 uM compound, 37° C., 60 min; % hepatic blood flow
In short: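 Compounds at 1 uM incubated with human liver microsomes plus NADPH at 37° C for up to 60 min, n=1. Aliquots quenched in cold acetonitrile at 0, 5, 15, 30, 60 min and analysed by LC/MS/MS. Percent remaining versus 0 min gives the ln-plot slope; t1/2 = 0.693/slope, also CLint, CLh, % Qh.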

Compound | IC50 [1] [nM] | HLM (% Qh) [2] [% Qh]
Cc1ncnc(C2CC2)c1-c1nc(C)c2nc(NCc3ccc(S(C)(=N)=O)cc3)c(=O)n([C@@H](C)C3CC3)c2n1 (single isomer, unassigned) [Example 27a] | 210 | <24
CC[C@@H](C)n1c(=O)c(NCc2ccc(S(=N)(=O)CC)cc2)nc2c(C)nc(-c3c(OC)ncnc3C3CC3)nc21 (single isomer, unassigned) [Example 29b] | 170 | 48
CCS(=N)(=O)c1ccc(CNc2nc3c(C)nc(-c4c(C)ncnc4C4CC4)nc3n([C@@H](C)C3CC3)c2=O)cc1 (single isomer, unassigned) [Example 36b] | 245 | <24
CC[C@@H](C)n1c(=O)c(NCc2ccc(S(C)(=O)=O)cn2)nc2c(C)nc(-c3c(OC)ncnc3C3CC3)nc21 [Example 2] | 110 | <24
CCS(=O)(=O)c1ccc(CNc2nc3c(C)nc(-c4c(C)ncnc4C4CC4)nc3n([C@@H](C)CF)c2=O)nc1 [Example 48] | 1200 | <24
CC[C@@H](C)n1c(=O)c(NCc2ccc(S(=O)(=O)CC)nc2)nc2c(C)nc(-c3c(OC)ncnc3C3CC3)nc21 [Example 3] | 88 | <24
CCS(=N)(=O)c1ccc(CNc2nc3c(C)nc(-c4c(C)ncnc4C4CC4)nc3n([C@@H](C)C(F)(F)F)c2=O)cc1 (single isomer, unassigned) [Example 34a] | 210 | 25
Cc1ncnc(C2CC2)c1-c1nc(C)c2nc(NCc3ccc(S(C)(=N)=O)cc3)c(=O)n([C@@H](C)C3CC3)c2n1 (single isomer, unassigned) [Example 27b] | 265 | <24
CC[C@@H](C)n1c(=O)c(NCc2ccc(S(=N)(=O)CC)cc2)nc2c(C)nc(-c3c(OC)ncnc3C3CC3)nc21 (single isomer, unassigned) [Example 29a] | 235 | 73
CC[C@@H](C)n1c(=O)c(NCc2ccc(S(=N)(=O)CC)cc2)nc2c(C)nc(-c3c(C)ncnc3C3CC3)nc21 (single isomer, unassigned) [Example 26a] | 109 | 25
CC[C@@H](C)n1c(=O)c(NCc2cnc(S(C)(=O)=O)cn2)nc2c(C)nc(-c3c(C)ncnc3C3CC3)nc21 [Example 55] | 265 | <24
COc1ncnc(C2CC2)c1-c1nc(C)c2nc(NCc3ccc(S(C)(=O)=O)cn3)c(=O)n([C@@H](C)C3CC3)c2n1 [Example 5] | 73 | 28
Cc1ncnc(C2CC2)c1-c1nc(C)c2nc(NCc3ccc(S(C)(=O)=O)cn3)c(=O)n([C@@H](C)C(F)(F)F)c2n1 [Example 18] | 175 | 55
CCS(=N)(=O)c1ccc(CNc2nc3c(C)nc(-c4c(C)ncnc4C4CC4)nc3n([C@@H](C)C3CC3)c2=O)nc1 (single isomer, unassigned) [Example 42b] | 390 | <24
CCS(=O)(=O)c1ccc(CNc2nc3c(C)nc(-c4c(C)ncnc4C4CC4)nc3n([C@@H](C)CF)c2=O)cn1 [Example 50] | 2700 | <24
Cc1ncnc(C2CC2)c1-c1nc(C)c2nc(NCc3ccc(S(C)(=O)=O)cn3)c(=O)n([C@@H](C)CF)c2n1 [Example 49] | 4200 | <24
CC[C@H](C)n1c(=O)c(NCc2ccc(S(C)(=O)=O)nc2)nc2c(C)nc(-c3c(OC)ncnc3C3CC3)nc21 [Example 11] | 135 | 26
CC[C@H](C)n1c(=O)c(NCc2ncc(S(=O)(=O)CC)cn2)nc2c(C)nc(-c3c(C)ncnc3C3CC3)nc21 [Example 16] | 113 | <24

Next, values leading:

IC50 [1] [nM] | HLM (% Qh) [2] [% Qh] | Compound
110 | <24 | COc1ncnc(C2CC2)c1-c1nc(C)c2nc(NCc3ccc(S(C)(=N)=O)cc3)c(=O)n([C@@H](C)C3CC3)c2n1 (stereo partly drawn) [Example 67]
1300 | <24 | COc1ncnc(C2CC2)c1-c1nc(C)c2nc(NCc3ccc(S(N)(=O)=O)cn3)c(=O)n(CC(C)C)c2n1 [Example 70]
260 | 41 | COc1ncnc(C2CC2)c1-c1nc(C)c2nc(NCc3ccc(S(C)(=N)=O)cc3)c(=O)n([C@@H](C)C(F)(F)F)c2n1 (single isomer, unassigned) [Example 99b]
320 | 46 | COc1ncnc(C2CC2)c1-c1nc(C)c2nc(NCc3ccc(S(N)(=O)=O)nc3)c(=O)n([C@@H](C)C(F)(F)F)c2n1 [Example 97]
98 | 78 | CC[C@@H](C)n1c(=O)c(NCC2CCN(S(C)(=O)=O)CC2)nc2c(C)nc(-c3c(C)ncnc3C3CC3)nc21 [Example 59]
230 | 41 | COc1ncnc(C2CC2)c1-c1nc(C)c2nc(NCc3ccc(S(C)(=N)=O)cc3)c(=O)n([C@@H](C)C(F)(F)F)c2n1 (single isomer, unassigned) [Example 99a]
225 | <24 | CCS(=O)(=O)c1ccc(CNc2nc3c(C)nc(-c4c(C)ncnc4C4CC4)nc3n([C@@H](C)C(F)(F)F)c2=O)cn1 [Example 82]
250 | 32 | CC[C@H](C)n1c(=O)c(NCc2ccc(S(C)(=N)=O)cc2)nc2c(C)nc(-c3c(OC)ncnc3C3CC3)nc21 (stereo partly drawn) [Example 83]
205 | <24 | CC[C@@H](C)n1c(=O)c(NCc2ccc(S(C)(=O)=O)nc2)nc2c(C)nc(-c3c(C)ncnc3C3CC3)nc21 [Example 72]
